Measurements published in BindingDB's records for doi:10.1016/j.bmcl.2018.06.004 (Peking University, 2018).

Key:
[1] = Inhibition of PGPH activity of 20S proteasome in human K562 cells using Z-nLPnLDaminoluciferin as substrate after 2 hrs by luminescence assay
[2] = Inhibition of trypsin-like activity of 20S proteasome in human K562 cells using Z-LRRaminoluciferin as substrate after 2 hrs by luminescence assay

## CC(C)C[C@H](NC(=O)[C@H](Cc1ccccc1)NC(=O)N1C/C(=C\c2ccc(F)cc2)C(=O)/C(=C/c2ccc(F)cc2)C1)B(O)O
[1]
  IC50: > 100 µM
[2]
  IC50: > 100 µM
